Literature values in US20240050339A1, “FORMULATION COMPRISING P-MENTHANE-3,8-DIOL” (priority 2020, published 2024).

Key:
[1] = system: Urbani SARS virus; conditions: PMD alone, from U.S. Pat. No. 7,872,051
[2] = system: SARS-CoV-2 England-2 isolate; conditions: one minute, mixed with the virus in the liquid phase

| SMILES | maximum log reduction [1] | anti-viral activity in liquid suspension [2] |
| --- | --- | --- |
| CC1CCC(C(C)(C)O)C(O)C1 (stereo not drawn) [PMD, 2-(2-Hydroxypropan-2-yl)-5-methylcyclohexan-1-ol] | 2.5 log |  |
| CCO [ethanol] |  | have anti-viral activity |
| CC(C)O [isopropanol, propan-2-ol] |  | have anti-viral activity |
